According to PMC5681660, “Reduced hepatitis B and D viral entry using clinically applied drugs as novel inhibitors of the bile acid transporter NTCP” (Scientific Reports, 2017):

Assays:
human NTCP [1] = target: T1, human NTCP (Homo sapiens, UniProt Q14973); test: Taurocholate uptake inhibition studies in U2OS-HA-hNTCP cells; assay type: cell-based; set-up: HA; expressed in transfected cells
T1 sequence (Q14973 1-349): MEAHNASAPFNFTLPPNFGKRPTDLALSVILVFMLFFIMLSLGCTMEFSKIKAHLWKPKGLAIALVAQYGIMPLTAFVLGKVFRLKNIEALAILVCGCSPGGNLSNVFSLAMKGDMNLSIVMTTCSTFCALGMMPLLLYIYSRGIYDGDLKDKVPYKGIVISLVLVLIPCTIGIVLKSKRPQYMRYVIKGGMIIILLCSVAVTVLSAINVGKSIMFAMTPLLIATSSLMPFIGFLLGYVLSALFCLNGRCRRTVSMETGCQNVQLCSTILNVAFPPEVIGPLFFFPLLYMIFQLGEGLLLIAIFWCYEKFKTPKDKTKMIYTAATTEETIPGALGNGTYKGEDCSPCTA

human ASBT = target: T2, human ASBT (Homo sapiens, UniProt Q12908); test: Taurocholate uptake in MDCK-hASBT cells; assay type: cell-based; conditions: compared with NTCP
T2 construct: expressed in transfected cells; gift of Paul Dawson; induced with sodium butyrate
T2 sequence (Q12908 1-348): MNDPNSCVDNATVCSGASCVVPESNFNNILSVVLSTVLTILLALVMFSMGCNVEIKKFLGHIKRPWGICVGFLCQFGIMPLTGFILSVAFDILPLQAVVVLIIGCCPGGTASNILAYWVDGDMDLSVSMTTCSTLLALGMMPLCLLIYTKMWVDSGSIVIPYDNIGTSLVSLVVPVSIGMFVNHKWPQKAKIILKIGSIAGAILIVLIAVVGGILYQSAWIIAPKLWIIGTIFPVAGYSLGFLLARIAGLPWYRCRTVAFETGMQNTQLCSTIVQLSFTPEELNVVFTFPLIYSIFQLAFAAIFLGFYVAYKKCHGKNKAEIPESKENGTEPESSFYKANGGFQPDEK
Procedure: U2OS and MDCK cells were grown in Dulbecco’s modified Eagle’s medium (DMEM, Sigma-Aldrich), supplemented with 10% FCS (Gibco), 1% L-glutamine (Lonza), and 1% penicillin/streptomycin (Lonza). […] Transient transfection of U2OS cells with mouse NTCP (mNTCP) was done with PEI reagent (Brunschwig, Basel, Switzerland). Shortly, U2OS cells were seeded one day prior to transfection in 24-well plates. On the day of transfection, 0.5 µg DNA was mixed with 100 µl unsupplemented DMEM and 3 µg/µl PEI. After 10–15 minute incubation at RT, 20 µl of the transfection mix was added to each 24-well. Transfected cells were used in further experiments 48–72 hours later. Cell lines were passaged twice a week at a confluence of 80%, and incubated in a humidified atmosphere of 37 °C + 5% CO2.
For MDCK or MDCK-hASBT cells 70.000 cells/well were plated in 24-well plates, followed by 24 hours 10 mM sodium butyrate (Sigma-Aldrich) stimulation the next day. Cells were used in the inhibition studies 24 hours (U2OS cell lines) or 48 hours (MDCK cell lines) later. Inhibition studies with mNTCP transiently transfected cells were conducted 48–72 hours after transfection.
Medium was aspirated from the wells and cells were washed once with 250 µL uptake buffer. Subsequently, cells were pre-incubated with drug in 150 µL uptake buffer for 10 minutes at 37 °C. Taurocholate uptake was initiated by addition of 100 µL uptake buffer containing taurocholate (final concentration 10 µM TC spiked with tritium-labeled TC) and cells were incubated for 2 minutes at 37 °C. Subsequently, cells were washed 4 times with ice-cold PBS and lysed with 0.05% SDS in water. Radioactivity was measured by liquid scintillation counting.

human NTCP [2] = target: T1, human NTCP; test: Myrcludex B-FITC binding by confocal microscopy in U2OS-HA-hNTCP cells; set-up: HA; expressed in transfected cells

## O=C(O)c1cc(/N=N/c2ccc(S(=O)(=O)Nc3ccccn3)cc2)ccc1O [Sulfasalazine]
Human NTCP [1]; U2OS-HA-hNTCP cells, both TC uptake and Myrcludex B binding
  concentration at which NTCP was inhibited in repeated measurements of TC-uptake and Myrcludex B binding: ≤ 10 µM
Human NTCP [1]; U2OS-HA-hNTCP cells, concentrations 1 nM to 10 mM, read-out: IC50 for hNTCP-mediated TC uptake
  IC50: 9.6 µM
Human NTCP [1]; increasing drug concentrations
  Taurocholate uptake into U2OS-HA-hNTCP cells (in words): reduced
Human ASBT
  inhibition of ASBT-mediated taurocholate uptake: largely ineffective
Human ASBT; listed as sulfasalazine
  inhibition of ASBT-mediated taurocholate uptake: Complete absence of ASBT inhibition
Human NTCP [2]; co-administration with increasing amounts of drug
  Myrcludex B-FITC fluorescence / binding to U2OS-HA-hNTCP cells (in words): reduced
Human NTCP [2]; confocal microscopy, 0.2 µM Myrcludex B-FITC, drug 1, 10, 100 µM, concentration at which binding inhibited minimally 50%
  ≥50% loss of Myrcludex B binding to hNTCP (concentration): ≥1 µM
